Measurements: patent publication US9079901B2, “Fused heterocyclic compounds as ion channel modulators” (Gilead Sciences, Inc., priority 2010, dated 2015)

Molecular target: wild-type human cardiac sodium channel, hNav1.5 (late sodium current) in HEK293 cells (Homo sapiens, UniProt Q14524)
Assay: Late INa screening assay (automated whole-cell patch clamp, PatchXpress)
Assay type: cell-based
Conditions: late INa generated with 10 μM Tefluthrin (or 50 nM ATX II), HEK293 hNav1.5; for inhibition at 1 µM: HEK293, compound at 1 μM, read-out: Late INa 1 μM (percent block of late INa)
How it was run: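 Percent block was derived from mean current 225–250 ms into a 250 ms depolarisation to −20 mV (holding −120 mV, every 10 s), normalised to the current left in Na-free solution. Whole-cell recordings came from HEK293 cells stably expressing α-subunit-only hNav1.5, at 24–27 °C. Late current was enhanced with 10 μM tefluthrin or 50 nM ATX II, then compound (typically 10 μM) was added three times over 7–8 min.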

wild-type human cardiac sodium channel, hNav1.5 (late sodium current) in HEK293 cells, sequence (Q14524 whole entry): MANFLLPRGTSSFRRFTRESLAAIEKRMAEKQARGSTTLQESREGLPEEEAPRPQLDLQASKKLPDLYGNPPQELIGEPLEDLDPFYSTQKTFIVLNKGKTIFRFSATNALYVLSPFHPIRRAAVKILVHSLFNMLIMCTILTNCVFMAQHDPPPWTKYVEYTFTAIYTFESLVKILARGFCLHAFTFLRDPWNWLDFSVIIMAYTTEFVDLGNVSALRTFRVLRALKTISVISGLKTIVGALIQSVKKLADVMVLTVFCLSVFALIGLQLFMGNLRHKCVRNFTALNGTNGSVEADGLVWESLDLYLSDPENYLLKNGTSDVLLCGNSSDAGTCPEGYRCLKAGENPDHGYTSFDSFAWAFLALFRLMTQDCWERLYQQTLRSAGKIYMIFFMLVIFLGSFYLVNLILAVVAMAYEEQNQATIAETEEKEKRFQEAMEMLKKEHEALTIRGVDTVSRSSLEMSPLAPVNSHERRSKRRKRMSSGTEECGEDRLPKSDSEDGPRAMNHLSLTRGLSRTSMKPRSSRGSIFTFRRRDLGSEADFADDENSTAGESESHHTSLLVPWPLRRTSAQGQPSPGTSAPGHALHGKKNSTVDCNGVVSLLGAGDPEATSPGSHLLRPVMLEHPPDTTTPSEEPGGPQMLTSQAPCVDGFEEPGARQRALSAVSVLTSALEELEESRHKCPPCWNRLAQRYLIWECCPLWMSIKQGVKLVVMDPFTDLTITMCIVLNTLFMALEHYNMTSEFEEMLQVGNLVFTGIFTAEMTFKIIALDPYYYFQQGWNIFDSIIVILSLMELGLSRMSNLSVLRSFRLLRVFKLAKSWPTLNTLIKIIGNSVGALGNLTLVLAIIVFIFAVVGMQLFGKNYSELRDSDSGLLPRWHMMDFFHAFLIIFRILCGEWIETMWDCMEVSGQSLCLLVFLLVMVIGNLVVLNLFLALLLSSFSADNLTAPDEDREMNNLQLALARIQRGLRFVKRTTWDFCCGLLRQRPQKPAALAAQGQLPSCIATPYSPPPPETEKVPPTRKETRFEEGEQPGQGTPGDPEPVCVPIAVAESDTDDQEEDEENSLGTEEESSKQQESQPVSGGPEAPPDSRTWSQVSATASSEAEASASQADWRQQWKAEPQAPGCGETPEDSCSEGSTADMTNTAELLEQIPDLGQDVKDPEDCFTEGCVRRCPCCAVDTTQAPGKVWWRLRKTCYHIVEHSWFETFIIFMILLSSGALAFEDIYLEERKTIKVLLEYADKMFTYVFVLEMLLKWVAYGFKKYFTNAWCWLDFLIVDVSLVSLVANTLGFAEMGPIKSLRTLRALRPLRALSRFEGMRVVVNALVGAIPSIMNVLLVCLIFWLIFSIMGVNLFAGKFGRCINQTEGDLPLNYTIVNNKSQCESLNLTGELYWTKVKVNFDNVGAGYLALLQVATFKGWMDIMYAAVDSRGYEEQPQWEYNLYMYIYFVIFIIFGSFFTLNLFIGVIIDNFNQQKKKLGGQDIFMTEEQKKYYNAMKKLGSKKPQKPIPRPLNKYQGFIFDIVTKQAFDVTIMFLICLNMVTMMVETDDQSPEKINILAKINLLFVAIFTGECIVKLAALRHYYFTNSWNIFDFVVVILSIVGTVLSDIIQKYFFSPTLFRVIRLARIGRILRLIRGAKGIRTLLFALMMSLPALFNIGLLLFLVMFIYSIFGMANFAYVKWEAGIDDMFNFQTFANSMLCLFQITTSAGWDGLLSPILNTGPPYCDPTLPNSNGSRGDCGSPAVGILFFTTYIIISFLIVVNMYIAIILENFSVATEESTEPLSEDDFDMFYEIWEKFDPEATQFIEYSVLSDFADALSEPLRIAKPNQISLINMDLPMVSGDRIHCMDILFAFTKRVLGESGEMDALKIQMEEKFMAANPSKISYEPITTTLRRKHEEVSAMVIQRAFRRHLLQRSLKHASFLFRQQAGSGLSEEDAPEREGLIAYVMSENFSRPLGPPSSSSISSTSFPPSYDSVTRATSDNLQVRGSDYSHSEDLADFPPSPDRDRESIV

| SMILES | inhibition at 1 µM [%] | Late INa 1 μM (percent block of late INa) (compound at 1 μM) [%] |
| --- | --- | --- |
| Cc1noc(Cn2nc3ccc(-c4ccc(C(F)(F)F)cc4)cn3c2=O)n1 [compound 137, 2-((3-methyl-1,2,4-oxadiazol-5-yl)methyl)-6-(4-(trifluoromethyl)phenyl)-[1,2,4]triazolo[4,3-a]pyridin-3(2H)-one] | 28.8 |  |
| O=c1n(CCOc2ncc(F)cn2)nc2ccc(-c3ccc(OC(F)(F)F)cc3)cn12 [compound 138, 2-(2-(5-fluoropyrimidin-2-yloxy)ethyl)-6-(4-(trifluoromethoxy)phenyl)-[1,2,4]triazolo[4,3-a]pyridin-3(2H)-one] | 32.4 |  |
| O=c1n(CCOc2cnc(Cl)nc2)nc2ccc(-c3ccc(OC(F)(F)F)cc3)cn12 [compound 139, 2-(2-(2-chloropyrimidin-5-yloxy)ethyl)-6-(4-(trifluoromethoxy)phenyl)-[1,2,4]triazolo[4,3-a]pyridin-3(2H)-one] | 20.2 |  |
| Cc1nc(Cn2nc3ccc(-c4ccc(Oc5ccc(F)cc5)cc4)cn3c2=O)no1 [compound 140, 6-(4-(4-fluorophenoxy)phenyl)-2-((5-methyl-1,2,4-oxadiazol-3-yl)methyl)-[1,2,4]triazolo[4,3-a]pyridin-3(2H)-one] | 60.6 |  |
| O=c1n(CCOc2nccc3ccccc23)nc2ccc(-c3ccc(OC(F)(F)F)cc3)cn12 [compound 141, 2-(2-(isoquinolin-1-yloxy)ethyl)-6-(4-(trifluoromethoxy)phenyl)-[1,2,4]triazolo[4,3-a]pyridin-3(2H)-one] | 29.9 |  |
| O=c1n(Cc2noc(C3CC3)n2)nc2ccc(-c3ccc(OC(F)(F)F)cc3)cn12 [compound 142, 2-((5-cyclopropyl-1,2,4-oxadiazol-3-yl)methyl)-6-(4-(trifluoromethoxy)phenyl)-[1,2,4]triazolo[4,3-a]pyridin-3(2H)-one] | 20 |  |
| O=c1[nH]nc2ccc(-c3ccc(Oc4ccc(F)cc4)cc3)cn12 [compound 143, 6-(4-(4-fluorophenoxy)phenyl)-[1,2,4]triazolo[4,3-a]pyridin-3(2H)-one] | 56.6 |  |
| O=c1n(Cc2cc(-c3ccccn3)on2)nc2ccc(-c3ccc(OC(F)(F)F)cc3)cn12 [compound 144, 2-((5-(pyridin-2-yl)isoxazol-3-yl)methyl)-6-(4-(trifluoromethoxy)phenyl)-[1,2,4]triazolo[4,3-a]pyridin-3(2H)-one] | 19.2 |  |
| Cc1cccnc1-c1cc(Cn2nc3ccc(-c4ccc(OC(F)(F)F)cc4)cn3c2=O)no1 [compound 145, 2-((5-(3-methylpyridin-2-yl)isoxazol-3-yl)methyl)-6-(4-(trifluoromethoxy)phenyl)-[1,2,4]triazolo[4,3-a]pyridin-3(2H)-one] | 37.7 |  |
| O=c1n(Cc2noc(CO)n2)nc2ccc(-c3ccc(Oc4ccc(F)cc4)cc3)cn12 [compound 146, 6-(4-(4-fluorophenoxy)phenyl)-2-((5-(hydroxymethyl)-1,2,4-oxadiazol-3-yl)methyl)-[1,2,4]triazolo[4,3-a]pyridin-3(2H)-one] | 32.6 |  |
| Cc1noc(C(C)n2nc3ccc(-c4ccc(OC(F)(F)F)cc4)cn3c2=O)n1 (stereo not shown) [compound 147, 2-(1-(3-methyl-1,2,4-oxadiazol-5-yl)ethyl)-6-(4-(trifluoromethoxy)phenyl)-[1,2,4]triazolo[4,3-a]pyridin-3(2H)-one] | 13.4 |  |
| Cc1nc(Cn2nc3ccc(-c4ccc(C(F)(F)F)cc4)cn3c2=O)no1 [compound 148, 2-((5-methyl-1,2,4-oxadiazol-3-yl)methyl)-6-(4-(trifluoromethyl)phenyl)-[1,2,4]triazolo[4,3-a]pyridin-3(2H)-one] | 11.6 |  |
| Cc1noc(Cn2nc3ccc(-c4ccc(Cl)cc4)cn3c2=O)n1 [compound 149, 6-(4-chlorophenyl)-2-((3-methyl-1,2,4-oxadiazol-5-yl)methyl)-[1,2,4]triazolo[4,3-a]pyridin-3(2H)-one] | 26.2 |  |
| Cc1noc(Cn2nc3ccc(-c4ccc(F)c(F)c4)cn3c2=O)n1 [compound 150, 6-(3,4-difluorophenyl)-2-((3-methyl-1,2,4-oxadiazol-5-yl)methyl)-[1,2,4]triazolo[4,3-a]pyridin-3(2H)-one] | 12.8 |  |
| O=c1n(C/C=C/c2ccccc2)nc2ccc(-c3ccc(OC(F)(F)F)cc3)cn12 [compound 151, 2-cinnamyl-6-(4-(trifluoromethoxy)phenyl)-[1,2,4]triazolo[4,3-a]pyridin-3(2H)-one] | 16.5 |  |
| CC1(C)OC[C@@H](c2nc(Cn3nc4ccc(-c5ccc(OC(F)(F)F)cc5)cn4c3=O)no2)O1 [compound 152, (S)-2-((5-(2,2-dimethyl-1,3-dioxolan-4-yl)-1,2,4-oxadiazol-3-yl)methyl)-6-(4-(trifluoromethoxy)phenyl)-[1,2,4]triazolo[4,3-a]pyridin-3(2H)-one] | 10.7 |  |
| COCc1noc(Cn2nc3ccc(-c4ccc(OC(F)(F)F)cc4)cn3c2=O)n1 [compound 153, 2-((3-(methoxymethyl)-1,2,4-oxadiazol-5-yl)methyl)-6-(4-(trifluoromethoxy)phenyl)-[1,2,4]triazolo[4,3-a]pyridin-3(2H)-one] | 23.2 |  |
| O=c1n(Cc2noc(C(F)F)n2)nc2ccc(-c3ccc(OC(F)(F)F)cc3)cn12 [compound 154, 2-((5-(difluoromethyl)-1,2,4-oxadiazol-3-yl)methyl)-6-(4-(trifluoromethoxy)phenyl)-[1,2,4]triazolo[4,3-a]pyridin-3(2H)-one] | 21 |  |
| Cc1noc(Cn2nc3ccc(-c4ccc(OC(F)(F)F)c(F)c4)cn3c2=O)n1 [compound 155, 6-(3-fluoro-4-(trifluoromethoxy)phenyl)-2-((3-methyl-1,2,4-oxadiazol-5-yl)methyl)-[1,2,4]triazolo[4,3-a]pyridin-3(2H)-one] | 18.8 |  |
| O=c1n(CCOc2nccc(OCCO)n2)nc2ccc(-c3ccc(OC(F)(F)F)cc3)cn12 [compound 156, 2-(2-(4-(2-hydroxyethoxy)pyrimidin-2-yloxy)ethyl)-6-(4-(trifluoromethoxy)phenyl)-[1,2,4]triazolo[4,3-a]pyridin-3(2H)-one] | 6.62 |  |
| O=c1n(Cc2noc(CCl)n2)nc2ccc(-c3ccc(OC(F)(F)F)cc3)cn12 [compound 157, 2-((5-(chloromethyl)-1,2,4-oxadiazol-3-yl)methyl)-6-(4-(trifluoromethoxy)phenyl)-[1,2,4]triazolo[4,3-a]pyridin-3(2H)-one] | 22.7 |  |
| CC1(C)OC[C@H](c2nc(Cn3nc4ccc(-c5ccc(OC(F)(F)F)cc5)cn4c3=O)no2)O1 [compound 158, (R)-2-((5-(2,2-dimethyl-1,3-dioxolan-4-yl)-1,2,4-oxadiazol-3-yl)methyl)-6-(4-(trifluoromethoxy)phenyl)-[1,2,4]triazolo[4,3-a]pyridin-3(2H)-one] | 25.3 |  |
| CSc1ccnc(OCCn2nc3ccc(-c4ccc(OC(F)(F)F)cc4)cn3c2=O)n1 [compound 159, 2-(2-(4-(methylthio)pyrimidin-2-yloxy)ethyl)-6-(4-(trifluoromethoxy)phenyl)-[1,2,4]triazolo[4,3-a]pyridin-3(2H)-one] | 49.6 |  |
| N#CCOc1ccnc(OCCn2nc3ccc(-c4ccc(OC(F)(F)F)cc4)cn3c2=O)n1 [compound 160] |  | 24.6907 |
| Cc1noc(Cn2nc3ccc(-c4ccc(Cl)c(F)c4)cn3c2=O)n1 [compound 161, 6-(4-chloro-3-fluorophenyl)-2-((3-methyl-1,2,4-oxadiazol-5-yl)methyl)-[1,2,4]triazolo[4,3-a]pyridin-3(2H)-one] | 13.9 |  |
